Several values for one entry are separate records, joined by “and”; a condition that tells them apart may be missing. Equal entries are not always repeated.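 All cell lines were grown in 96-well plates and treated with compound for 48 hours. GI50 is the concentration that inhibits growth by half. At the TGI there is no net growth.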 Where a SMILES comes first, the peptide text is derived from it. [ ]: non-standard residue; d: D form. 2Nal = N[CH](Cc1ccc2ccccc2c1)C(=O)O
Columns and labels:
Experiment in all cases: growth of human tumour cells (NCI), 48 h
[1] = system: NCI-H23 lung
[2] = system: SN12C renal
[3] = system: SF-539 CNS
[4] = system: HL-60(TB) leukemia
[5] = system: SK-MEL-5 melanoma
[6] = system: HCT-116 colon
[7] = system: HOP-62 NSCLC
[8] = system: MDA-MB-435
[9] = system: U251 CNS
[10] = system: UO-31 renal

Compound	TGI [1]	TGI [2]	TGI [3]	TGI [4]	TGI [5]	TGI [6]	TGI [7]	TGI [8]	TGI [9]	TGI [10]	GI50 [1]	GI50 [2]	GI50 [3]	GI50 [4]	GI50 [5]	GI50 [6]	GI50 [7]	GI50 [8]	GI50 [9]	GI50 [10]
CC(=O)O[C@H]1C(=O)[C@@]2(C)[C@H]([C@H](OC(=O)c3ccccc3)[C@@]3(O)C[C@H](O)C(C)=C1C3(C)C)[C@]1(OC(C)=O)CO[C@@H]1C[C@@H]2O	> 100 µM	> 100 µM	> 100 µM	> 100 µM	> 100 µM	> 100 µM	> 100 µM	27.5 µM	> 100 µM	> 100 µM										
C/C=C(/C)C(=O)OC1C=C(CO)C(=O)C(OC(=O)C(C)(O)C(C)Cl)C1C(C)C (stereo unspecified)	4.42 µM	2.11 µM	2.62 µM	5.74 µM	2.75 µM	2.49 µM	4.89 µM	2.83 µM	2.8 µM	2.64 µM	1.84 µM	0.731 µM	1.28 µM	0.358 µM	1.38 µM	1.07 µM	2.1 µM	1.35 µM	1.38 µM	1.34 µM
C=C1NC(=O)C(CC(C(=O)C(=O)Nc2c(C)cccc2C(C)(C)C)C(=O)c2ccc3ccccc3c2)C(=O)N1 (stereo unspecified)	> 100 µM	> 100 µM	> 100 µM	> 100 µM	> 100 µM	> 100 µM		> 100 µM	> 100 µM	> 100 µM										
CC1CCc2c(c(CC3CC(=O)NC(=O)C3)nn2-c2ccccc2)C1 (stereo unspecified)	> 100 µM	> 100 µM	> 100 µM	> 100 µM	> 100 µM	> 100 µM	> 100 µM	> 100 µM	> 100 µM	> 100 µM										
COc1cc2ncn(-c3cc(OCc4ccccc4C(F)(F)F)c(C(C)=O)s3)c2cc1OC	> 25 µM	> 25 µM	> 25 µM	> 25 µM	> 25 µM	> 25 µM	> 25 µM	> 25 µM	> 25 µM	> 25 µM	> 25 µM	> 21.7 µM	> 25 µM	> 25 µM	> 25 µM	> 25 µM	> 25 µM	17.6 µM	> 25 µM	> 25 µM
CCCN1C(=O)/C(=C/c2ccc(O)cc2)SC1=Nc1ccc(OC)cc1	32.4 µM	34.5 µM	33.1 µM	50.2 µM	26 µM	29.3 µM	80 µM	31.2 µM	26 µM	> 100 µM	16.2 µM	16.8 µM	16.2 µM	17.1 µM	11 µM	14.2 µM	28 µM	14.9 µM	12.5 µM	25.7 µM
Cc1nnc(-c2ccc(C)c(-c3ccc(C(=O)NCc4ccc(Cl)cc4)cc3)c2)o1	> 25 µM	> 25 µM	> 25 µM	24.5 µM	9.53 µM	> 25 µM	> 25 µM	> 25 µM	> 25 µM	> 25 µM	11.3 µM	> 18 µM	> 22.7 µM	8.55 µM	3.97 µM	12.6 µM	14.7 µM	7.15 µM	> 25 µM	4.37 µM
CC[C@@H](C)Nc1cc(C(=O)NC2CC3CCC(C2)N3c2ccc(C(=O)C3CC3)cn2)c(C)cc1C(N)=O (stereo partly specified)	> 100 µM	> 100 µM	> 100 µM	88.9 µM	8.35 µM	> 100 µM	> 100 µM	> 39.3 µM	> 100 µM	> 100 µM	0.0589 µM	0.052 µM	0.0679 µM	0.0329 µM	0.0599 µM	0.03 µM	0.0598 µM	0.0391 µM	0.0669 µM	0.0479 µM
COC(=O)c1ccc2c(c1)c1c(C)c3ccncc3c(C)c1n2C	16.1 µM	> 100 µM	45.1 µM	39.4 µM	0.912 µM	> 100 µM	> 100 µM	22.9 µM	> 100 µM	77.5 µM	0.304 µM	0.214 µM	0.332 µM	1.13 µM	0.232 µM	0.0495 µM	0.106 µM	0.437 µM	0.322 µM	0.0717 µM
CO[C@@H]1[C@H]2[C@@H](C)c3ccoc3C[C@@H]2[C@@]2(C)CC[C@H](OC(=O)c3ccccc3)[C@](C)(C(=O)O)[C@]2(O)[C@@H]1OC(=O)c1ccccc1	28.5 µM	17 µM	16.5 µM	> 50 µM	13.7 µM	15.8 µM		19.5 µM	12 µM	> 50 µM	10.6 µM	7.11 µM	8.81 µM	14.7 µM	7.21 µM	8.89 µM		7.97 µM	5.87 µM	> 50 µM
Cc1cc(NNC(=O)c2ccccc2O)nc(Nc2nc3ccccc3o2)n1	37.8 µM	19.1 µM	11.2 µM	6.99 µM	6.72 µM	7.47 µM	13.5 µM	17.8 µM	13.4 µM	1.91 µM	3.99 µM	1.62 µM	1.41 µM	1.13 µM	1.11 µM	1.06 µM	0.865 µM	3.02 µM	0.628 µM	0.622 µM
CC(C)C(NC(=O)C(CCCCN)NC(=O)C(Cc1c[nH]c2ccccc12)NC(=O)C(Cc1ccc(O)cc1)NC(=O)C(CS)NC(=O)C(N)Cc1ccc2ccccc2c1)C(=O)NC(CS)C(=O)NC(C(N)=O)C(C)O (stereo unspecified) (H-[2Nal]CYWKVCT-NH2; configuration not given here)	> 100 µM	> 100 µM	> 100 µM	> 100 µM	> 12.5 µM	> 12.5 µM and 10.9 µM	> 100 µM	> 12.5 µM	> 100 µM	> 100 µM	> 100 µM	> 100 µM	> 100 µM	> 100 µM		2.52 µM	> 100 µM		> 100 µM	> 100 µM
CN1CCN(Cc2ccc(NC(=O)c3cncc(C#Cc4cnn5ccccc45)c3)cc2C(F)(F)F)CC1	1.97 µM	3.85 µM	1.25 µM	1.15 µM	1.72 µM	1.47 µM	2.93 µM	1.7 µM	4.15 µM	3.39 µM	0.655 µM	0.825 µM	0.518 µM	0.25 µM	0.902 µM	0.294 µM	0.939 µM	0.729 µM	1.06 µM	1.17 µM
CCOc1c(C#N)c2c(N)ncnc2n1C1OC(CO)C(O)C1O (stereo unspecified)	34.4 µM	> 100 µM	50 µM	6.94 µM	16.6 µM	3.27 µM	26.5 µM	34.6 µM	> 100 µM	> 40.3 µM	3.69 µM	3.14 µM	4.06 µM	1.94 µM	3.79 µM	0.881 µM	5.01 µM	3.15 µM	3.21 µM	2.86 µM
COC(=O)C(=O)C(C(=O)C(=O)Nc1ccc(C)cc1)c1nc2ccc(C(=O)c3ccccc3)cc2[nH]c1=O (stereo unspecified)	> 100 µM	> 100 µM	> 100 µM	> 100 µM	> 100 µM	> 100 µM	> 100 µM	> 100 µM	> 100 µM	> 100 µM										
CN(O)C(=S)c1ccccc1	19.8 µM	> 55.4 µM	63.1 µM	7.04 µM	16.3 µM	5.07 µM	> 90.8 µM	> 100 µM	> 100 µM	21.6 µM										
N#Cc1c(N)nc(N2CCSCC2)c(C#N)c1-c1ccc(O)cc1	36 µM	50.2 µM	39 µM	53.1 µM	28 µM		28.3 µM	49.6 µM	28.3 µM	> 100 µM	17.4 µM	19.8 µM	18 µM	17 µM	12.7 µM		12.6 µM	19 µM	15 µM	23.2 µM
C1CCN2CC3CCCN4CCCC(C2C1)C34 (stereo unspecified)	> 100 µM	> 100 µM	> 100 µM	> 100 µM	> 100 µM	> 100 µM	> 100 µM	> 100 µM	> 100 µM											
O=C1C(=O)N(c2cccc(C(F)(F)F)c2)C(=O)C(=O)C1c1nc2ccccc2s1	> 100 µM	> 100 µM	> 100 µM	59.8 µM	> 100 µM	> 100 µM	> 100 µM	> 100 µM	> 100 µM	> 100 µM										
CCN(CC)CC(C)(C)C(=O)/C=C/c1ccc(/C=C/C(=O)C(C)(C)CN(CC)CC)cc1	4.73 µM	1.06 µM	2.54 µM	0.22 µM	3.7 µM	0.74 µM	5.01 µM	2.16 µM	1.57 µM	4.96 µM										
CC(CCCC1SCC2NC(=O)NC21)C(=O)O (stereo unspecified)	> 100 µM	> 100 µM	> 100 µM	> 100 µM	> 100 µM	> 100 µM	> 100 µM	> 100 µM	> 100 µM	> 100 µM										
O=C(Nc1ccc2c(c1)OCO2)C(=O)c1c[nH]c2cc(F)ccc12	55.4 µM	> 100 µM	36.3 µM	> 100 µM	10.6 µM	> 100 µM	21.9 µM	> 100 µM	51.7 µM	44.9 µM	13.9 µM	38.3 µM	3.23 µM	4.51 µM	0.726 µM	11.2 µM	5.11 µM	0.854 µM	9.17 µM	4.42 µM
COc1ccc(/C=C2\CC(C)CC3C2=NN(c2ccccc2)C3c2ccc(OC)c(OC)c2)cc1OC (stereo unspecified)	27.2 µM	14.5 µM	24.9 µM	8.7 µM	6.94 µM		17 µM	> 100 µM	15.3 µM	> 100 µM	4.49 µM	3.45 µM	4.46 µM	2.76 µM	2.41 µM		4.87 µM	3.2 µM	3.92 µM	5.75 µM
CC1CC(C)C2=NOS3=C2C1=NO3 (stereo unspecified)	> 100 µM	> 100 µM	> 100 µM	> 100 µM	> 100 µM	> 100 µM	> 100 µM	> 100 µM	> 100 µM	> 100 µM										
COC(=O)C1=C(C(=O)OC)C2OC1c1cc3ccccc3cc12	11.8 µM	30.8 µM	12.1 µM	2.22 µM	30.8 µM	4.29 µM	34.7 µM	18 µM	32.7 µM	2.91 µM										
C[C@@H]1CC[C@@H]2[C@@H](C)C[C@H]3[C@@H]4C(C)(C)OC(=O)[C@]4(C)C(=O)[C@@]23C1=O	> 100 µM	> 100 µM	> 100 µM	> 100 µM	> 100 µM	> 100 µM	> 100 µM	> 100 µM	> 100 µM	> 100 µM									31.9 µM	> 100 µM
NC(=Nc1nc(-c2ccccn2)cc2ccccc12)c1ccccn1	> 61.6 µM	22.7 µM	0.743 µM and 2.08 µM	0.0598 µM and 0.251 µM	> 78.1 µM	> 100 µM	38.1 µM	> 100 µM	18.6 µM	0.921 µM and 1.96 µM	0.0743 µM	0.131 µM	0.189 µM	0.00104 µM	0.0462 µM	0.00151 µM	0.319 µM	0.283 µM	0.111 µM	0.239 µM
CCCCCCN(C)Cc1ccc(OCCOc2ccc(CN(C)CCCCCC)cc2)cc1	3.42 µM	3.08 µM	2.92 µM	4.51 µM	2.66 µM	2.21 µM	3.15 µM	2.5 µM	2.37 µM	5.01 µM	1.52 µM	1.35 µM	1.37 µM	1.91 µM	1.36 µM	1.01 µM	1.48 µM	1.04 µM	1.08 µM	1.04 µM
C=C1C(=O)OC2CC3(C)CCCC(C)C3=CC12 (stereo unspecified)	19.9 µM	12.2 µM	3.79 µM	2.59 µM	4.6 µM	15.5 µM		14.1 µM	22.2 µM	12.5 µM										

Source: PubChem BioAssay (NCI)
